# Like-named read-outs stand apart in the source and are kept apart here.
# What was measured:
# [1] = tested on: mycosis fungoides; details: human, in vivo
# [2] = tested on: mycosis fungoides; assay: Therapy history of patient 3 before SD-101 (clinical response, tolerability)
compound,measurement,setting,value
SGN-35: agent of the SGN-35 clinical trial in which patient 3 participated,reason the therapy was stopped (toxicity),[1],too much toxicity
C=C(c1ccc(C(=O)O)cc1)c1cc2c(cc1C)C(C)(C)CCC2(C)C [Targretin],reason the therapy was stopped (toxicity),[2],hypertriglyceridemia
same,response to therapy,"[2]; Zolinza with 12 Gy TSEBT, Targretin 300 mg daily, SGN-35 clinical trial",partial response in the skin
